Results as given in ChEMBL document CHEMBL3507680, “University of Dundee, Gates Library screen for HepG2 cell viability”.

Assay: Human HepG2 cell viability assay in 384 well format
Assay type: toxicity, cell-based
Set-up: dose 125 nL, time 70.5 hour; cytotoxicity at 70.5 h: concentration not given beside the values
Conditions: HepG2 cells, read-out: Inhibition

SMILES | cytotoxicity at 70.5 h
CNS(=O)(=O)c1cc(C(=O)NC2COc3ccccc3C2)ccc1OC (stereo not drawn) | 6.83%
CN(Cc1cccs1)C(=O)CN1CCCCC1Cn1cncn1 (stereo not drawn) | 23.2%
CC(CC(=O)N1CCCS1(=O)=O)c1ccccc1C(F)(F)F (stereo not drawn) | 3.27%
Cc1c[nH]cc1C(=O)N1CCN(Cc2nc(C(C)C)no2)CC1 | -15.1%
CC(C)Cc1nc(CNCc2cccc(N3CCCC3=O)c2)no1 | -20.4%
CCn1cnnc1CNC(=O)N(C)Cc1ccc(Cl)cc1Cl | 3.74%
COCC(=O)N1CCc2c(CNS(C)(=O)=O)n[nH]c2C1 | -5.36%
O=C1CC(NS(=O)(=O)c2ccc3ccccc3c2)CN1 (stereo not drawn) | -5.96%
COc1ccc(NC2(C(=O)N3CCn4cncc4C3)CCCC2)cc1 | -11.8%
O=C(NCc1ccccc1CN1CCCC1)Nc1nncs1 | 3.29%
CCC(C)(CNC(=O)c1ccon1)NC(=O)c1ccon1 (stereo not drawn) | -8.49%
CCCC(O)CN1CCC(=O)N(CCOC)Cc2cc3c(cc21)OCO3 (stereo not drawn) | 18.9%
Fc1cnc(N2CCCC3(CCN(Cc4ccco4)C3)C2)nc1 (stereo not drawn) | 10.4%
Cc1nn(C)c2cnn(C(C)C(=O)NCc3cccnc3)c12 (stereo not drawn) | -5.87%
Cc1cc(N2CCCCC2)nc(N(CCO)CCO)c1C#N | -8.15%
COCCCNC(=O)Nc1ccc(OCc2noc(C3CC3)n2)cc1 | -11.8%
Cc1cc(C)n(Cc2cccc(C(=O)N(CCC#N)CCC#N)c2)n1 | -0.535%
CC(Cn1cccn1)NCc1nc(-c2ccccn2)no1 (stereo not drawn) | -11.1%
COc1ccc(Cc2ncc3c(n2)CN(C(=O)CO)C3)cc1 | -6.42%
O=C(NCc1ccc(CN2CCCC2)cc1)NCc1ccon1 | -3.38%

SMILES | cytotoxicity at 70.5 h
Cc1ccc(CNc2ccccc2SCCC(N)=O)s1 | -99.2%
Cn1cc(C2(C)CN(C(=O)Nc3ccccc3F)CCO2)cn1 (stereo not drawn) | -5.13%
CCOc1ccc(NC(=O)Nc2cc(N3CCCCC3)ncn2)cc1 | -1.28%
NC(=O)C1CCN(C(=O)c2ccn(-c3ccc(F)cc3)n2)C1 (stereo not drawn) | -1.48%
CCn1cc2c(n1)CN(Cc1cnn(C)c1)CC2COCC1CC1 (stereo not drawn) | -11.6%
CC(C)Cc1ncc2c(n1)CN(c1cc(NCCO)nc(N)n1)C2 | -8.13%
c1cnc2c(c1)nc1n2[C@@H](CNCc2nccs2)COC1 | -8.24%
CC(Sc1nnc(C2CC2)n1CC(N)=O)c1ccc(F)cc1F (stereo not drawn) | -4.59%
c1cnn(CCNCc2ccc(N3CCCCC3)cc2)c1 | -13.6%
COc1cccc2c1OCC(C(=O)NCCc1nnc(C)s1)C2 (stereo not drawn) | 8.68%
CC(C)N(Cc1nc2c(cnn2C)c(=O)[nH]1)c1ccccc1 | 3.46%
Cc1cnn(CC2CN(Cc3nc(C)c(C)o3)CCO2)c1 (stereo not drawn) | 1.07%
CC(C)C(=O)N1CCCC2(CC(C(=O)NCc3cccnc3)=NO2)C1 (stereo not drawn) | -2.66%
O=C1CCC(c2nc(C3CCN(C(=O)C4CC4)CC3)no2)N1 (stereo not drawn) | -4.42%
CCc1nc(C2CCCN2C(=O)c2cnc3n[nH]c(C)c3c2)no1 (stereo not drawn) | -12.5%
CN(Cc1nccs1)c1nccc(N2CCN[C@H]3CS(=O)(=O)C[C@H]32)n1 | 2.95%
CC(=O)NC[C@@H]1C=C(C)[C@H](CC(=O)NCCN(C)C)C[C@H]1C(C)C | 23.8%
CCN1C[C@@H]2[C@@H](OC)CCN(S(=O)(=O)c3ccccc3)[C@@H]2C1 | 3.99%
Cn1ccnc1COc1ccc(CO)cc1 | -6.37%
COc1ccc(Cl)cc1NCCC(=O)NCCNc1cnccn1 | 3.74%

SMILES | cytotoxicity at 70.5 h
Cn1cc(CN2CCCC(O)C2)c(-c2ccccc2F)n1 (stereo not drawn) | -6.51%
CN1C(=O)CCCC12CCCN(C(=O)c1ccc3c(c1)OCO3)C2 (stereo not drawn) | -15.9%
CCN(c1ccc(C(=O)N2CCCCCC2)cc1)S(=O)(=O)CC | -2.32%
O=S(=O)(C1CC1)N1CCCn2nnc(Cn3cccc3)c2C1 | -8.69%
CCC(c1nc(C(C)C)nn1-c1ccncc1C)n1cccn1 (stereo not drawn) | -9.34%
CCCS(=O)(=O)N1Cc2nccn2CC(Cn2cncn2)C1 (stereo not drawn) | 20.3%
Cc1cc(C(=O)NCC2(C(N)=O)CCOCC2)nn1C(C)(C)C | -6.96%
COc1ccc(-c2cnc(CN3CCCC3CO)o2)cc1 (stereo not drawn) | 7.93%
COc1nsc2nc(C3CCCN3C(C)=O)ccc12 (stereo not drawn) | -3.15%
COc1cccc(CC(=O)N2CC[C@@H](OC)[C@@H]2Cc2cccnc2)c1 | -4.93%
CC(C)OC(=O)N1CCC(Cc2cccc(C(N)=O)c2)C1 (stereo not drawn) | 35.3%
Cc1nc(N2CCN(C(=O)C3CC3)CC2)c2c(n1)c(C)nn2C | 0.516%
Cc1nc(C)n(CC2CN(CCCOc3ccc(F)cc3)CCO2)n1 (stereo not drawn) | -17.9%
CC(C)c1cc(=O)[nH]c(C(C)(C)N)n1 | -3.05%
CN(C)c1nc(N)nc(CN2CCCC2c2cccs2)n1 (stereo not drawn) | 0.514%
CN(C)C(=O)n1c(C(=O)NC(C)(C)CO)cc2c1c1ccccc1n2C | -6.99%
CN(C)C(=O)CN1CCc2onc(-c3ccccc3F)c2C1 | 48.8%
CN(C)c1cc(C(=O)N2CCCN(Cc3cscn3)CC2)ccn1 | -8.49%
